Source: ChEMBL document CHEMBL3627672, “Structure-activity relationship study of syringolin A as a potential anticancer agent” (Bioorg Med Chem Lett, 2015)

Legend:
[1] = target: T1, Proteasome Macropain subunit MB1 (Homo sapiens, UniProt P28074); assay: Inhibition of proteasome beta-5 (unknown origin)
T1 sequence (P28074 whole entry): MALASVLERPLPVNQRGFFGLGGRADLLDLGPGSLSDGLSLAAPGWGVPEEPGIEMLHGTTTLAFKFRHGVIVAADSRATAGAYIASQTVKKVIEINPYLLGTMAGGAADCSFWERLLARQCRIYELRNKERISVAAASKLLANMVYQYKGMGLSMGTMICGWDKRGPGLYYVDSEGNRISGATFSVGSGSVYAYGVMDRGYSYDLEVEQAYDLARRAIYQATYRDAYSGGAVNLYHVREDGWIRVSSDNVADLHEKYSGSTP

[2] = Cytotoxicity against human MM1S cells; format: functional, cell-based; conditions: MM1.S
[3] = test system: A-431; assay: Antiproliferative activity against human A431 cells after 72 hrs by oxyluciferin luminescence assay; conditions: A-431, 72 h
[4] = test system: HCT-116; assay: Antiproliferative activity against human HCT116 cells after 72 hrs by oxyluciferin luminescence assay; conditions: HCT-116, 72 h
[5] = test system: RKO; assay: Antiproliferative activity against human RKO cells after 72 hrs by oxyluciferin luminescence assay
[6] = Antiproliferative activity against human TOV21G cells after 72 hrs by oxyluciferin luminescence assay
[7] = test system: CCRF-CEM; assay: Antiproliferative activity against human CCRF-CEM cells after 72 hrs by oxyluciferin luminescence assay
[8] = Antiproliferative activity against human RPMI8266 cells after 72 hrs by oxyluciferin luminescence assay; conditions: RPMI8266, 72 h
[9] = Cytotoxicity against human RPMI8266 cells

SMILES | Ki [1] | IC50 [3] | IC50 [4] | IC50 [7] | IC50 [2] | IC50 [5] | IC50 [6] | IC50 [8] | IC50 [9]
CCCCCCCCCC(=O)N1CCC[C@]1(Cc1ccccc1)C(=O)N[C@H]1/C=C/CCNC(=O)/C=C/[C@H](C(C)C)NC1=O | – | > 1000 nM | > 1000 nM | > 1000 nM | – | > 1000 nM | > 1000 nM | > 1000 nM | –
CCCCCCCCCC(=O)N[C@H](CC(=O)N[C@H]1/C=C/CCNC(=O)/C=C/[C@H](C(C)C)NC1=O)Cc1ccccc1 | – | 191 nM | 434 nM | 221 nM | – | 244 nM | 212 nM | 255 nM | –
CC(C)C[C@H](NC(=O)[C@H](Cc1ccccc1)NC(=O)c1cnccn1)B(O)O [BORTEZOMIB] | – | 28.2 nM | 27 nM | 11 nM | – | 20.8 nM | 16.7 nM | 14.4 nM | –

Now from value to compound, other results behind:

Ki [1] | IC50 [3] | IC50 [4] | IC50 [7] | SMILES | IC50 [2] | IC50 [5] | IC50 [6] | IC50 [8] | IC50 [9]
843 nM | – | – | – | CC(C)[C@H](NC(=O)N[C@H](C(=O)N[C@H]1/C=C/CCNC(=O)/C=C/[C@H](C(C)C)NC1=O)C(C)C)C(=O)O | 8500 nM | – | – | – | –
– | 14.1 nM | 12.6 nM | 4.3 nM | CCCCCCCCCC(=O)N[C@@H](Cc1ccccc1)C(=O)N[C@H]1/C=C/CCNC(=O)/C=C/[C@H](C(C)C)NC1=O | – | 11.8 nM | 12.3 nM | 9 nM | 2.2 nM
– | 23.8 nM | 19.3 nM | 6.1 nM | CC(C)C[C@H](NC(=O)[C@H](CCc1ccccc1)NC(=O)CN1CCOCC1)C(=O)N[C@@H](Cc1ccccc1)C(=O)N[C@@H](CC(C)C)C(=O)[C@@]1(C)CO1 [CARFILZOMIB] | – | 27.1 nM | 23.8 nM | 13.9 nM | –
